US7511074B2, “Tetrafluorobenzyl derivatives and pharmaceutical composition for preventing and treating acute and chronic neurodegenerative diseases in central nervous system containing the same” (AmKor Pharma, Inc., priority 2002, dated 2009)
“Also recorded” adds a separate entry of the source. Where two headings read alike, the source gives them in different places.

How the values were obtained:
NMDA receptor = assay: Whole cell recording of NMDA-induced inward currents in cultured cortical neurons; type: cell-based, mouse
Method: Typical NMDA-induced inward currents (NMDA currents) were evoked by applying 300 μM NMDA to cortical neurons which were held at […]. Successive application of various concentrations of 2-Hydroxy-TTBA reduced the response elicited by 300 μM NMDA in a concentration-dependent manner (n=8).
Cortical neurons were treated with 100 μM 2-Hydroxy-TTBA, washed thoroughly, and then applied with 300 μM NMDA.
Whole cell recordings were performed on cortical cell cultures at room temperature as described [Seo et al., J. Pharmacol. Exp. Ther., 299:377-384 (2001)]. Typical NMDA-induced inward currents (NMDA currents) were evoked immediately after applying 300 μM NMDA to cultured cortical neurons which were held at −70 mV.

[1] = test system: Mouse cortical cell cultures; assay: Zinc neurotoxicity in mixed cortical cell cultures (LDH assay); type: cell-based; conditions: 100 μM ZnCl2 for 30 min, concurrent treatment; LDH 24 hr later
Method: Mouse cortical cell cultures (DIV 12-14) were exposed to […] for 30 min, alone or with inclusion of 3-300 μM 2-Hydroxy-TTBA. Neuronal death was analyzed 24 hr later by measuring levels of LDH released into the bathing medium, mean ±SEM (n=9-12 culture wells per condition), scaled to mean LDH efflux value 24 hr after sham wash (=0) and continuous exposure to 500 μM NMDA (=100).
For mixed neuron-glia culture, mouse cerebral cortices were removed from brains of the 14-16 day-old-fetal mice (E14-16), gently triturated and plated on 24 well plates (2×10^5 cells/plate) precoated with 100 μg/ml poly-D-lysine and 4 μg/ml laminine. Cultures were maintained at 37° C. in a humidified 5% CO2 atmosphere. […]
After 7-8 days in vitro (DIV 7-8), 10 μM cytosine arabinofuranoside (Ara-C) was included to halt overgrowth of glia. […] Overall neuronal cell injury was assessed by measuring amount of lactate dehydrogenase (LDH) released into the bathing medium 24 hr after neurotoxic insults as previously described [Koh and Choi, J Neurosci Methods 20:83-90, 1987].
To induce zinc (Zn^2+) neurotoxicity, mixed cortical cell cultures were exposed to 100 μM ZnCl2 for 30 min in a HEPES-buffered control salt solution (HCSS): (in mM) 120 NaCl, 5 KCl, 1.6 MgCl2, 2.3 CaCl2, 15 glucose, 20 HEPES and 10 NaOH, alone or with 3-300 uM 2-Hydroxy-TTBA. […] Neuronal cell death was analyzed 24 hr later by LDH assay. […]

[2] = test system: Sprague-Dawley rats, compression of T8 spinal cord; assay: Mitochondrial ROS production after traumatic spinal cord injury; type: in vivo, rat; conditions: 50 mg/kg ip immediately after injury; analyzed 48 hr later
Method: Adult rats received compression injury at the level of T8 spinal cord, alone (control) or with injections of 2-Hydroxy-TTBA (50 mg/kg, ip) and Mitotracker CM-H2X ROS immediately after injury. Animals were euthanized 2 d later, spinal cord sections sections immunostained with an antibody for NeuN (a neuronal marker protein), and levels of mitochondrial ROS in the dorsal horn neurons (DHN) analyzed by measuring fluorescence intensity of oxidized Mitotracker CM-H2X, mean ±S.E.M. [n=12 rats for each condition (5 spinal cord sections for each rat)]. *, Significant difference from the vehicle control, p<0.05 using the independent t-test.
Sprague-Dawley rats (250-300 g, female) received traumatic spinal cord injury by compression of the dorsal spinal cord. T8 segment of spinal cord was exposed on the dorsal side, compressed with 20 g for 10 min, and then mitochondrial CM-H2X Ros was immediately injected into the spinal cord. 2-Hydroxy-TTBA (50 mg/kg, ip) or a vehicle control (control) was injected with mitochondrial CM-H2X Ros. Levels of mitochondrial ROS in the dorsal horn neurons were analyzed 48 hr later as described above after immunolabeling with anti-NeuN antibody, a neuron-specific marker.

SMILES: O=C(O)c1cc(NCc2c(F)c(F)c(C(F)(F)F)c(F)c2F)ccc1O [2-Hydroxy-TTBA, 2-hydroxy-5-(2,3,5,6-tetrafluoro-4-trifluoromethylbenzylamino)benzoic acid]
- effect on holding currents (NMDA receptor; 100 μM compound alone): had no effect on the holding currents
- effect of pretreatment on response to subsequent 300 μM NMDA (NMDA receptor; 100 μM compound applied alone, then 300 μM NMDA, n=6): did not influence NMDA-induced inward currents; also recorded: had little effect
- Hill coefficient of dose response relation to NMDA currents (NMDA receptor; 300 μM NMDA, neurons held at −60 mV, n=8): 0.91
- IC50 (NMDA receptor; 300 μM NMDA, neurons held at −60 mV, n=8, read-out: IC50 for NMDA currents (FIG. 2a legend)): ~35 µM
- IC50 (NMDA receptor; 300 μM NMDA, neurons held at −70 mV, bath application, n=7-15 neurons/condition, read-out: IC50 for depression of NMDA-evoked currents): 30.6 ± 2.96 µM
- doses at which zinc-induced neuronal death was prevented [1]: 10 to 300 µM
- mitochondrial ROS production in spinal cord neurons [2]: significantly reduced mitochondrial ROS production
